The source of these data is paper PMC7206119, “RIP1 inhibition blocks inflammatory diseases but not tumor growth or metastases” (Cell Death and Differentiation, 2019).

What all share (assay): biochemical
Parameters in all cases: Thermo Fisher SelectScreen kinase panel: Z'-LYTE and Adapta activity, LanthaScreen binding
Background: Time-resolved FRET reads energy transfer from a long-lived donor to a nearby acceptor.

Assay [1] deals with EPHB1 (Homo sapiens, UniProt P54762). The method in brief: (§1)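 GNE684 profiled at 10 µM across 221 kinases with Z'-LYTE and Adapta activity and LanthaScreen binding formats. Also screened at 10 µM against 468 kinases in KINOMEscan scanMAX binding assay.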
Assay [2] deals with RIPK2 (Homo sapiens, UniProt O43353). Put shortly:
as §1

Assay [3] addresses MELK (Homo sapiens, UniProt Q14680). The method in brief:
as §1

Assay [4] has as its target TBK1 (Homo sapiens, UniProt Q9UHD2). Put shortly:
as §1

In assay [5] the target is ROCK1 (Homo sapiens, UniProt Q13464). Put shortly:
as §1

For assay [6], the target named is T1, KHS1 (Homo sapiens, UniProt Q9Y4K4).
T1 construct: gene MAP4K5
T1 sequence (Q9Y4K4 whole entry): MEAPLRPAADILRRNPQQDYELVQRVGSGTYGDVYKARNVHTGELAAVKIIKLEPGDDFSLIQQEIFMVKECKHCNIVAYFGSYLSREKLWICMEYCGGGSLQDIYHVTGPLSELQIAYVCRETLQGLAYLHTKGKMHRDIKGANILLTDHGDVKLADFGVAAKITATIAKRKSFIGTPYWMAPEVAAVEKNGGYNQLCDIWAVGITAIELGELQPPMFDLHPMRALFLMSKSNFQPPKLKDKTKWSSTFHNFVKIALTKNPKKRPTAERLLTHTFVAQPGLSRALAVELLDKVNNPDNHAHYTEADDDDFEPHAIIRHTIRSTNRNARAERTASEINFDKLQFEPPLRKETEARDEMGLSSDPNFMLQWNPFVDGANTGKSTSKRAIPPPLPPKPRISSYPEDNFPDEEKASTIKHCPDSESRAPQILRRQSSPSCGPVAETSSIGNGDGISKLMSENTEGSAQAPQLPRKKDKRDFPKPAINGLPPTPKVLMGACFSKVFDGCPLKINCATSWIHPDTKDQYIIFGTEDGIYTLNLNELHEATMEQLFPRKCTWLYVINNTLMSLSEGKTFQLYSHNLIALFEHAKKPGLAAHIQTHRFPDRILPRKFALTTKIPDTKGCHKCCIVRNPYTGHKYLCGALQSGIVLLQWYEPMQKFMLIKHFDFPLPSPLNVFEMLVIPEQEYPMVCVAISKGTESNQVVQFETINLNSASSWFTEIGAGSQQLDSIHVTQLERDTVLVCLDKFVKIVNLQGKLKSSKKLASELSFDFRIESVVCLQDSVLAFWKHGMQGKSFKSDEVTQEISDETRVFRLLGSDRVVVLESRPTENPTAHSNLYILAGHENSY
The method in brief:
as §1

For assay [7], the target named is T2, ALK2 (Homo sapiens, UniProt Q04771).
T2 construct: gene ACVR1
Put shortly:
as §1

For assay [8], the target named is FGFR3 (Homo sapiens, UniProt P22607). The method in brief:
as §1

In assay [9] the target is CDK2/cyclinA (Homo sapiens, UniProt P24941). Put shortly:
as §1

The target of assay [10] is ITK (Homo sapiens, UniProt Q08881). Put shortly:
as §1

Assay [11] concerns the target CLK1 (Homo sapiens, UniProt P49759). Put shortly: as §1
The target of assay [12] is CAMKK1 (Homo sapiens, UniProt Q8N5S9). The method in brief: as §1
Chain of CAMKK1 (Q8N5S9 whole entry): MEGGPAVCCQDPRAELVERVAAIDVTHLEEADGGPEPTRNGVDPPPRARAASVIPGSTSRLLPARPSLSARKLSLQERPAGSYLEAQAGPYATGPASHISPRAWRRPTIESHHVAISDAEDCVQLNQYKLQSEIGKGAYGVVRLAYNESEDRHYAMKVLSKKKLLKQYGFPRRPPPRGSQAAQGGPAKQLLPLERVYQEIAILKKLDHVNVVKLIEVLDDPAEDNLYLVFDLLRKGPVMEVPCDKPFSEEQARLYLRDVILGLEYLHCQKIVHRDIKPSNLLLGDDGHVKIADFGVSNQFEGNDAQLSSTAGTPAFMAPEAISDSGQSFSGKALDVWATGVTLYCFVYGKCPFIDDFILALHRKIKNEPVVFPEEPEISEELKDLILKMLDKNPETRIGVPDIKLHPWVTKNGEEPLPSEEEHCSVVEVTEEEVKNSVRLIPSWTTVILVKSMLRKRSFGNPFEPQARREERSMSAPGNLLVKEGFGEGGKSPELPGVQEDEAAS
Assay [13] has as its target EPHB3 (Homo sapiens, UniProt P54753). Put shortly: as §1
Assay [14] addresses PIM1 (Homo sapiens, UniProt P11309). The method in brief:
as §1

For assay [15], the target named is T3, CaMKI_delta (Homo sapiens, UniProt Q8IU85).
T3 construct: gene CAMK1D
T3 sequence (Q8IU85 whole entry): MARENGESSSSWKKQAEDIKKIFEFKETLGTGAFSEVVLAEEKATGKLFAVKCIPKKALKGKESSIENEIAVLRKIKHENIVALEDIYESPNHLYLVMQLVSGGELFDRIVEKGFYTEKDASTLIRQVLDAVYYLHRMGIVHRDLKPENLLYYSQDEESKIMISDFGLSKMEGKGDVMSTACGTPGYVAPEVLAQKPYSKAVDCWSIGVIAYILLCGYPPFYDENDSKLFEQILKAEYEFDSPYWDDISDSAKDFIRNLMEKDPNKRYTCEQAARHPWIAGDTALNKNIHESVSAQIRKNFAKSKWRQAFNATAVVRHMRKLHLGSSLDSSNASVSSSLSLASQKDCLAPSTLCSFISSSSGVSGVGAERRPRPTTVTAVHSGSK
The method in brief: as §1

For assay [16], the target named is INSR (Homo sapiens, UniProt P06213). Put shortly:
as §1

Assay [17] addresses T4, ZAK (Homo sapiens, UniProt Q9NYL2).
T4 construct: gene MAP3K20
The method in brief: as §1

In assay [18] the target is HCK (Homo sapiens, UniProt P08631). Put shortly:
as §1

The target of assay [19] is FLT1 (Homo sapiens, UniProt P17948). The method in brief: as §1
Chain of FLT1 (P17948 whole entry): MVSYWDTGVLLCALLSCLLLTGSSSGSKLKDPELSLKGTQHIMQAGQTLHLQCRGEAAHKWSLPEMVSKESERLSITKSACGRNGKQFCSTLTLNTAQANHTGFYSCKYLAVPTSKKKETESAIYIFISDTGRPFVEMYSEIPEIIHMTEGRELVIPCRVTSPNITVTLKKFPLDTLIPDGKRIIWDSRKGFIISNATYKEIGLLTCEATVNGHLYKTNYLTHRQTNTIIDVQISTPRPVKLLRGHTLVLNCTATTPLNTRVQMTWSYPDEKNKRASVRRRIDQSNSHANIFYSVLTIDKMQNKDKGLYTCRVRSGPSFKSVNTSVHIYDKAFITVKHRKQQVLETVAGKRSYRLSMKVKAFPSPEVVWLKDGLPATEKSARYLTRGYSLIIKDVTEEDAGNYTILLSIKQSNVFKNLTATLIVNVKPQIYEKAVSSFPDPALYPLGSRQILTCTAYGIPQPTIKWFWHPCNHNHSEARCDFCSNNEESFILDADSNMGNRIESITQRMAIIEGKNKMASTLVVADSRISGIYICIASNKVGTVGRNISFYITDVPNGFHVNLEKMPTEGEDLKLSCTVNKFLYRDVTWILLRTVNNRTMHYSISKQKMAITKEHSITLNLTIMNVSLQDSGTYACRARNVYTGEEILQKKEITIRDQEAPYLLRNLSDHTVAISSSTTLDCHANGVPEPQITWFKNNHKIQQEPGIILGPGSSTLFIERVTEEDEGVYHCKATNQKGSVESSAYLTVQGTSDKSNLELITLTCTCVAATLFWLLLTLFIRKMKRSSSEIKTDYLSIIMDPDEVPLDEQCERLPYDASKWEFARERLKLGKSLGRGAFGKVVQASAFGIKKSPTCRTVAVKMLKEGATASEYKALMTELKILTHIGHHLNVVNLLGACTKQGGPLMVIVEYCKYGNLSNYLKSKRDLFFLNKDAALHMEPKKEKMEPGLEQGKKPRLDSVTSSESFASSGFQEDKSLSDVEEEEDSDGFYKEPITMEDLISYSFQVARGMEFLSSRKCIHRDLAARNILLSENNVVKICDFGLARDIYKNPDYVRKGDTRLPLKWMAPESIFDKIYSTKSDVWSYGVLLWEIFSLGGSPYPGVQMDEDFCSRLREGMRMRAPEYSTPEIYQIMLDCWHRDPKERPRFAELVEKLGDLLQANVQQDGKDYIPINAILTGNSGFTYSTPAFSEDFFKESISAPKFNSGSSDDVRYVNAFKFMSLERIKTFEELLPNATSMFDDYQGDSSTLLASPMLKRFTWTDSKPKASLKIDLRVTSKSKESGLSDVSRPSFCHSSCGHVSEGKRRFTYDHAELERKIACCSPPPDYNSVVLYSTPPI
Assay [20] deals with T5, GSK3_alpha (Homo sapiens, UniProt P49840).
T5 construct: gene GSK3A
Put shortly:
as §1

Assay [21] has as its target T6, Aurora_A (Homo sapiens, UniProt O14965).
T6 construct: gene AURKA
Put shortly:
as §1

Assay [22] deals with T7, Hyl (Homo sapiens, UniProt P42679).
T7 construct: gene MATK
T7 sequence (P42679 whole entry): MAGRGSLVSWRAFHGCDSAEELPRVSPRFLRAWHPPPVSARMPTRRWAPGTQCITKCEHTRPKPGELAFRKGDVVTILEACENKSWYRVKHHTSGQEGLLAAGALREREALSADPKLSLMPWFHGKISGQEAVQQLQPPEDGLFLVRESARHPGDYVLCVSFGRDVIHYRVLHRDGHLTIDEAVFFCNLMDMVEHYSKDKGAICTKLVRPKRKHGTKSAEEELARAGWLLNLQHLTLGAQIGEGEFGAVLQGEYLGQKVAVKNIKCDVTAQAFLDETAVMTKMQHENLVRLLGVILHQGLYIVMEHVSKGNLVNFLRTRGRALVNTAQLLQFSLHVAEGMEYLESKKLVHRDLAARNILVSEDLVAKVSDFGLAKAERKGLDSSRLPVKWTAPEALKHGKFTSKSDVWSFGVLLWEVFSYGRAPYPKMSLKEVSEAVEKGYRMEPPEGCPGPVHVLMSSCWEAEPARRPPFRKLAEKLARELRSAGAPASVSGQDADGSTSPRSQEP
The method in brief: as §1

Assay [23] has as its target LYN (Homo sapiens, UniProt P07948). Put shortly: as §1

T6 sequence (O14965 whole entry): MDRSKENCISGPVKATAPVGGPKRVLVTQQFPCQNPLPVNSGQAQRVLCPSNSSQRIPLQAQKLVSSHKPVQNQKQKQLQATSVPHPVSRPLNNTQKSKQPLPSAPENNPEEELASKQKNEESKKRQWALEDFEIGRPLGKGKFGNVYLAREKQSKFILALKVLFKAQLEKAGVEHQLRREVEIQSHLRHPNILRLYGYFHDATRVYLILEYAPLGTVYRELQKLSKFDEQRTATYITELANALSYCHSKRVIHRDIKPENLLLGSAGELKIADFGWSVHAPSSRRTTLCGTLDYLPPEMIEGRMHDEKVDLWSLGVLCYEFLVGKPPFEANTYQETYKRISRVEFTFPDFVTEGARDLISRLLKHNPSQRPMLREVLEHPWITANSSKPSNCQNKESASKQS
Chain of RIPK2 (O43353 whole entry): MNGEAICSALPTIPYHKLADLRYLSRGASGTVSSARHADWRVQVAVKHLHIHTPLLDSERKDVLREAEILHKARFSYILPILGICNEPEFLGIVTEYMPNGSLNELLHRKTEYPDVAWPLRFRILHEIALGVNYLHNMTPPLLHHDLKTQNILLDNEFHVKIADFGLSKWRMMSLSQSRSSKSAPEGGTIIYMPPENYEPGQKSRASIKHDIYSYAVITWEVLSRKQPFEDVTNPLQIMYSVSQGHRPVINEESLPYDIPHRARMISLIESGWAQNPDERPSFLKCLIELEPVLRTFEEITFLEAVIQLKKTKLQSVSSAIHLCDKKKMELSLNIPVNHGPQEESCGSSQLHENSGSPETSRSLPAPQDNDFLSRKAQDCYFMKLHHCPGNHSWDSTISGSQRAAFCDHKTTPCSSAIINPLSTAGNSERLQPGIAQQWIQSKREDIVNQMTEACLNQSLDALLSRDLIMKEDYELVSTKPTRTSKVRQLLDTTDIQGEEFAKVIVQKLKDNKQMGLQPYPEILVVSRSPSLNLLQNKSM
Chain of PIM1 (P11309 whole entry): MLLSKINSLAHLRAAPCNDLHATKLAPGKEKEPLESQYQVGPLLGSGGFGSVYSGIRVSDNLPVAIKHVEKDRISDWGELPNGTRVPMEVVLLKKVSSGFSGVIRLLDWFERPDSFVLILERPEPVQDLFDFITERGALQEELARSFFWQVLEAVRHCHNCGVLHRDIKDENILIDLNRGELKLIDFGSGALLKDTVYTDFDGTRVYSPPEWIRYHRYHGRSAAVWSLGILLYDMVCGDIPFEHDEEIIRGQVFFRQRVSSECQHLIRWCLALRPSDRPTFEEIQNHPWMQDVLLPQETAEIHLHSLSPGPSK

`COc1cc2c(cn1)N(C)C(=O)[C@@H](NC(=O)c1nc3n(n1)[C@H](c1ccccc1)CC3)CC2` [GNE684, (S)-N-((S)-7-methoxy-1-methyl-2-oxo-2,3,4,5-tetrahydro-1H-pyrido[3,4-b]azepin-3-yl)-5-phenyl-6,7-dihydro-5H-pyrrolo[1,2-b][1,2,4]triazole-2-carboxamide]: the inhibition (as a rule, the change of the read-out against control, counted positive when it falls) at 10 µM in assay [1] stood at 3%; in assay [2], 2%; in assay [3], 13%; in assay [4] it was 1%; in assay [5] it was 1%; in [6] it was 12%. Further, the inhibition at 10 µM is 2% in [7]; -1.5% in [8]; 6.5% in assay [9]; 5% in assay [10]; -0.5% in assay [11]; -7.5% in assay [12]. For the same molecule, the inhibition at 10 µM in [13] is 3.5%; in [14], 1%; in assay [15] it was 7.5%; in assay [16], 3.5%; in assay [17], -0.5%; in [18], 5%. The inhibition at 10 µM came to 3.5% in [19]; 5% in assay [20]; 3% in [21]; 1% in assay [22]; 7% in assay [23].
